Where a name gives a salt, the structure may show the parent alone.
Assays:
anti-thyroxine [1] = assay: Fluorescence polarization kinetic assay, F-thyroxine/anti-thyroxine system; assay type: binding; conditions: PBS with 4.75% 2-propanol, BSA 0.1 μM, Anti-Thyroxine 1:300
anti-thyroxine [2] = assay: as above; assay type: binding; conditions: for Rate of the antibody reaction with increasing concentrations of additive: PBS with 5% 2-propanol, BSA 0.1 μM, Fluorescein-Thyroxine 1 nM, Anti-Thyroxine 1:300
Method: An initial stock solution of anti-thyroxine sera was prepared. In particular, 1 ml of polyclonal anti-thyroxine sera containing 10 mg/ml IgG (Sigma) was diluted 1:5 in PBS buffer, pH 7.5. The final concentration of IgG in the stock solution was about 2 mg/ml.
An initial stock solution of fluorescein-labeled analyte (F-thyroxine) was prepared. […] First, 5 mg (4×10^−6 moles) of F-thyroxine was diluted to 10 ml in PBS to get a 4.1×10^−4 M solution of F-thyroxine. This solution was then further diluted 100-fold in PBS. The final concentration of F-thyroxine in the stock solution was about 4.1×10^−6 M.
All steps are performed at ambient temperature. The total final reaction volume after all additions is 3030 μl. • 1. Add 20 μl or 0 μl (control) anti-sera stock solution to about 2980 μl of Buffer 1. • 2. Pipette the diluted anti-sera solution prepared in step 1 up and down from 1 to 10 seconds to thoroughly mix. • 3. Add between 0 and 20 μl thyroxine stock solution (e.g., 0, 0.5, 2.0, 5.0 and 20 μl) to the mixed anti-sera from step 2. • 4. Pipette the mixture formed in step 3 up and down for 1 to 10 seconds and then incubate for 30 to 300 seconds. • 5. Add 10 μl of the Fluorescein-labeled thyroxine stock solution to the incubated mixture from step 4. • 6. Pipette the mixture formed in step 5 up and down for 1 to 10 seconds and begin measuring polarization (P), Polarized Fluorescence Intensity Difference (V−H) or quenching (V+H total intensity) versus time for between 10 and 7200 seconds after end of mixing in a direct readout polarometer or between 0.1 and 7200 seconds after end of mixing with a stopped-flow polarometer. • 7. Determine the rate of reaction (initial rates) and plot versus amount of thyroxine stock solution added in step 3 to produce a standard curve. • 8. Against a standard curve, an unknown amount of thyroxine can be measured by comparison of initial rate measurement (speed of reaction) of unknown with the standard curve. […]

anti-thyroxine [3] = assay: Fluorescence polarization kinetic assay, rhodamine-labeled thyroxine (ROX-T4)/anti-thyroxine system; assay type: binding; conditions: Rox-Thyroxine 1.5 nM, Anti-Thyroxine 1:300, PBS with 10% 2-propanol, serum 1:500
Method: The protocol used is described below. […] Use clean glassware, washed with isopropanol. • 2. Make a 0.5 M solution of sodium benzoate. • 3. […] This will be named BUFFER. • 4. […] The absorbance spectrum is measured using a UV-VIS spectrophotometer, 400 nm to 800 nm. This spectrum is used to define the absorbance of the background as zero and to control that it is actually zero. • 6. […] Measure the absorbance UV-VIS, 400 nm to 800 nm. […] Using a rotating polarometer with a 75 watt Xenon short-arc lamp. The rotating polarizer has three channels: Polarization (P), Total Intensity (V+H), and V−H. • 8. […] Measure P, V+H and V−H after short mixing and 30 second equilibration. […] Add 10 μl. Antibody solution (anti-thyroxine in PBS, dilution unknown, probably 5 mg in 1000 μl PBS and further diluted 1:10 in PBS). New volume is 3017 μl. Measure P, V+H and V−H after short mixing.

human sera = assay: Non-specific binding of F-thyroxine in presence of human sera; conditions: Buffer 2 (1.0 M sodium benzoate), 50 μl human sera, V−H over 10-600 s
Method: With reference to FIG. 2, experiments were performed to determine the effects of an additive on specific and non-specific binding. The additive used in the present example was sodium benzoate. The materials described in Example 1 and the measurement methodology described in Example 2 were used. In particular, 50 μl of human sera was added to 3000 μl of Buffer 2 or PBS at pH 7.5 (no additive control) and thoroughly mixed by pipetting for 1 to 10 seconds. To this was added 0 μl of unlabeled thyroxine and 0 μl, 20 μl or 50 μl of anti-sera stock solution. The mixture was thoroughly mixed by pipetting for 1 to 10 seconds. Then, 5 μl of the fluorescein-labeled thyroxine stock solution was added. This was followed by mixing for 1 to 10 seconds by pipetting. Then, d(V−H)/dt measurements were made versus time for between 10 and 600 seconds. This protocol was followed for Experiments 6-9 in Table 2.

serum components = assay: Initial non-specific binding between F-thyroxine and serum components (P at t=0); conditions: experiments 6-3 through 6-7: serum, increasing sodium benzoate; PBS with 10% 2-propanol
Method: The buffer and stock solutions described in Example 1 and the measurement methodology described in Example 2 were used.
• Fluorescein-Thyroxine (1 nM) • Anti-Thyroxine (1:300 dilution) • PBS with 10% 2-propanol • Benzoate in different concentrations • At t=0 s antibody was pipetted into the cuvette. • A 3 ml cuvette was used, the total volume in the cuvette was 2 ml. A small magnetic stirrer was used for mixing
In example 6, the reactions between F-Thyroxine and Anti-Thyroxine, which were carried out in the presence of serum under different reaction conditions, are compared (FIG. 4). There are seven different amounts of sodium benzoate, between 0 and 1.0 Molar in the cuvette. The reaction was performed in a phosphate buffered saline buffer containing 10% 2-propanol. The table in FIG. 4 lists the two important parameters.

Q: With `O=C1CCC(=O)N1O` [N-hydroxysuccinimide] as the compound, how does the “Rate of the antibody reaction with increasing concentrations of additive” value (anti-thyroxine [1]; Fluorescein-Thyroxine 1.5 nM) read?
A: Its value is “substantially slowed”.

Q: Which “Rate of the antibody reaction with increasing concentrations of additive” value (anti-thyroxine [2]) does the source give for `N=C(N)N` [guanidine hydrochloride] here?
A: Its value is “substantially slowed”.

Q: `O=C([O-])C(Cl)Cl.[Na+]` [sodium dichloroacetate] was tested. Which “Rate of the antibody reaction with increasing concentrations of additive” value (anti-thyroxine [1]; Fluorescein-Thyroxine 1 nM) did it give?
A: Its value is “substantially slowed”.

Q: How did the “Rate of the reaction with increasing concentrations of additive” value (anti-thyroxine [3]) turn out when `O=C([O-])c1ccccc1.[Na+]` [sodium benzoate] was run?
A: The value was “substantially slowed”.

Q: And the “Reaction between F-thyroxine and its specific antibody capable of being followed (kinetic curve)” value (anti-thyroxine [2]; Buffer 1 (0.5 M sodium benzoate in PBS, pH 7.5) versus PBS)?
A: The value was “only capable of being followed when the reaction was performed in the presence of an additive”.

Q: What about the “Effect of additive on specific binding” value (anti-thyroxine [2]; Buffer 2 (1.0 M sodium benzoate), 50 μl human sera, 0/20/50 μl antiserum, V−H over 10-600 s) of the same compound?
A: Its value is “does not inhibit specific binding”.

Q: What about the “Rate of the antibody reaction with increasing concentrations of additive” value (anti-thyroxine [2]) of the same compound?
A: The value was “substantially slowed”.

Q: And the “Reaction rate relative to its value from zero additive agent” value (anti-thyroxine [2]; experiments 6-3 through 6-7: serum, increasing sodium benzoate, PBS with 10% 2-propanol)?
A: Its value is “about 30%”.

Q: What about the “Effect of additive on non-specific binding” value (human sera) of the same compound?
A: Its value is “inhibits non-specific binding”.

Q: And the “Polarization value before addition of antibody (t=0)” value (serum components)?
A: The value was 100 mP.

Q: How did the “Rate of the antibody reaction with increasing concentrations of additive” value (anti-thyroxine [1]; Fluorescein-Thyroxine 1 nM) turn out when `O=C([O-])c1ccccc1.[K+]` [potassium benzoate] was run?
A: The value was “substantially slowed”.

Q: How did the “Rate of the antibody reaction with increasing concentrations of additive” value (anti-thyroxine [1]; Fluorescein-Thyroxine 1.5 nM) turn out when `[Cl-].[Na+]` [sodium chloride] was run?
A: The value was “not substantially slowed”.

Q: Which “Rate of the antibody reaction with increasing concentrations of additive” value (anti-thyroxine [1]; Fluorescein-Thyroxine 1 nM) does the source give for `O=C([O-])CCl.[Na+]` [sodium chloroacetate] here?
A: The value was “substantially slowed”.

Q: `Cc1ccc(S(=O)(=O)O)cc1.[Na]` [sodium p-tolulene sulfonate, sodium p-toluene sulfonate] was tested. Which “Rate of the antibody reaction with increasing concentrations of additive” value (anti-thyroxine [2]) did it give?
A: The value was “substantially slowed”.
